We go through five molecules from ChEMBL document CHEMBL5625277, “Systematical mutational analysis of teriparatide on anti-osteoporosis activity by alanine scanning” (Bioorg Med Chem Lett, 2024).

The source made the active and inactive calls. The rule behind the calls is not given here.

One series deals with Calvarial osteoblast. Nature of the series: Induction of mineralization in osteoblast assessed as formation of calcium nodules at 50 to 100 nM measured after 14 days by Alizarin Red S staining based analysis. Format: functional, cell-based. The following applies: dose 50-100 nM, time 14.0 day.
Another series deals with Skull progenitor cell. Nature of the series: Induction of osteoblast differentiation in mouse skull progenitor cells assessed as increase in purple-stained ALP-positive cells at 100 nM measured after 4 days by imaging analysis. It counts as functional, cell-based. The following applies: time 4.0 day.
Series [1] is described as follows: Cytotoxicity in pre-osteoblasts (unknown origin) assessed as cell death upto 5 uM by CCK8 assay. Conditions: pre-osteoblast. It counts as toxicity, cell-based.

For the molecule `CC[C@H](C)[C@H](NC(=O)[C@H](CCC(=O)O)NC(=O)[C@H](CO)NC(=O)[C@@H](NC(=O)[C@H](CO)NC(C)=O)C(C)C)C(=O)N[C@@H](CCC(N)=O)C(=O)N[C@@H](CC(C)C)C(=O)N[C@@H](CCSC)C(=O)N[C@@H](Cc1cnc[nH]1)C(=O)N[C@@H](CC(N)=O)C(=O)N[C@@H](CC(C)C)C(=O)NCC(=O)N[C@@H](C)C(=O)N[C@@H](Cc1cnc[nH]1)C(=O)N[C@@H](CC(C)C)C(=O)N[C@@H](CC(N)=O)C(=O)N[C@@H](CO)C(=O)N[C@@H](CCSC)C(=O)N[C@@H](CCC(=O)O)C(=O)N[C@@H](CCCNC(=N)N)C(=O)N[C@H](C(=O)N[C@@H](CCC(=O)O)C(=O)N[C@@H](Cc1c[nH]c2ccccc12)C(=O)N[C@@H](CC(C)C)C(=O)N[C@@H](CCCNC(=N)N)C(=O)N[C@@H](CCCCN)C(=O)N[C@@H](CCCCN)C(=O)N[C@@H](CC(C)C)C(=O)N[C@@H](CCC(N)=O)C(=O)N[C@@H](CC(=O)O)C(=O)N[C@H](C(=O)N[C@@H](Cc1cnc[nH]1)C(=O)N[C@@H](CC(N)=O)C(=O)N[C@@H](Cc1ccccc1)C(N)=O)C(C)C)C(C)C`, the outcome in the series with Calvarial osteoblast and in the series with Skull progenitor cell was Active. In addition, the Activity result in series [1] is on record as “Non-Toxic”.

For `CC[C@H](C)[C@H](NC(=O)[C@H](CCC(=O)O)NC(=O)[C@H](CO)NC(=O)[C@@H](NC(=O)[C@H](CO)NC(C)=O)C(C)C)C(=O)N[C@@H](CCC(N)=O)C(=O)N[C@@H](CC(C)C)C(=O)N[C@@H](CCSC)C(=O)N[C@@H](Cc1cnc[nH]1)C(=O)N[C@@H](CC(N)=O)C(=O)N[C@@H](CC(C)C)C(=O)NCC(=O)N[C@@H](CCCCN)C(=O)N[C@@H](Cc1cnc[nH]1)C(=O)N[C@@H](CC(C)C)C(=O)N[C@@H](CC(N)=O)C(=O)N[C@@H](CO)C(=O)N[C@@H](CCSC)C(=O)N[C@@H](CCC(=O)O)C(=O)N[C@@H](CCCNC(=N)N)C(=O)N[C@H](C(=O)N[C@@H](CCC(=O)O)C(=O)N[C@@H](Cc1c[nH]c2ccccc12)C(=O)N[C@@H](CC(C)C)C(=O)N[C@@H](CCCNC(=N)N)C(=O)N[C@@H](CCCCN)C(=O)N[C@@H](CCCCN)C(=O)N[C@@H](CC(C)C)C(=O)N[C@@H](CCC(N)=O)C(=O)N[C@@H](C)C(=O)N[C@H](C(=O)N[C@@H](Cc1cnc[nH]1)C(=O)N[C@@H](CC(N)=O)C(=O)N[C@@H](Cc1ccccc1)C(N)=O)C(C)C)C(C)C`, the outcome with Calvarial osteoblast and with Skull progenitor cell was Active. Also, the Activity entry in series [1] was “Non-Toxic”.

In the case of `CC[C@H](C)[C@H](NC(=O)[C@H](CCC(=O)O)NC(=O)[C@H](CO)NC(=O)[C@@H](NC(=O)[C@H](CO)NC(C)=O)C(C)C)C(=O)N[C@@H](CCC(N)=O)C(=O)N[C@@H](CC(C)C)C(=O)N[C@@H](CCSC)C(=O)N[C@@H](Cc1cnc[nH]1)C(=O)N[C@@H](CC(N)=O)C(=O)N[C@@H](C)C(=O)NCC(=O)N[C@@H](CCCCN)C(=O)N[C@@H](Cc1cnc[nH]1)C(=O)N[C@@H](CC(C)C)C(=O)N[C@@H](CC(N)=O)C(=O)N[C@@H](CO)C(=O)N[C@@H](CCSC)C(=O)N[C@@H](CCC(=O)O)C(=O)N[C@@H](CCCNC(=N)N)C(=O)N[C@H](C(=O)N[C@@H](CCC(=O)O)C(=O)N[C@@H](Cc1c[nH]c2ccccc12)C(=O)N[C@@H](CC(C)C)C(=O)N[C@@H](CCCNC(=N)N)C(=O)N[C@@H](CCCCN)C(=O)N[C@@H](CCCCN)C(=O)N[C@@H](CC(C)C)C(=O)N[C@@H](CCC(N)=O)C(=O)N[C@@H](CC(=O)O)C(=O)N[C@H](C(=O)N[C@@H](Cc1cnc[nH]1)C(=O)N[C@@H](CC(N)=O)C(=O)N[C@@H](Cc1ccccc1)C(N)=O)C(C)C)C(C)C`, in series [1], the Activity entry is given as “Non-Toxic”.

As for `CC[C@H](C)[C@H](NC(=O)[C@H](CCC(=O)O)NC(=O)[C@H](CO)NC(=O)[C@@H](NC(=O)[C@H](CO)NC(C)=O)C(C)C)C(=O)N[C@@H](CCC(N)=O)C(=O)N[C@@H](CC(C)C)C(=O)N[C@@H](CCSC)C(=O)N[C@@H](Cc1cnc[nH]1)C(=O)N[C@@H](CC(N)=O)C(=O)N[C@@H](CC(C)C)C(=O)NCC(=O)N[C@@H](CCCCN)C(=O)N[C@@H](Cc1cnc[nH]1)C(=O)N[C@@H](CC(C)C)C(=O)N[C@@H](CC(N)=O)C(=O)N[C@@H](CO)C(=O)N[C@@H](CCSC)C(=O)N[C@@H](CCC(=O)O)C(=O)N[C@@H](CCCNC(=N)N)C(=O)N[C@H](C(=O)N[C@@H](CCC(=O)O)C(=O)N[C@@H](Cc1c[nH]c2ccccc12)C(=O)N[C@@H](CC(C)C)C(=O)N[C@@H](CCCNC(=N)N)C(=O)N[C@@H](CCCCN)C(=O)N[C@@H](CCCCN)C(=O)N[C@@H](CC(C)C)C(=O)N[C@@H](CCC(N)=O)C(=O)N[C@@H](CC(=O)O)C(=O)N[C@H](C(=O)N[C@@H](C)C(=O)N[C@@H](CC(N)=O)C(=O)N[C@@H](Cc1ccccc1)C(N)=O)C(C)C)C(C)C`, in series [1], the Activity result is given as “Non-Toxic”.

`CC[C@H](C)[C@H](NC(=O)[C@H](CCC(=O)O)NC(=O)[C@H](CO)NC(=O)[C@@H](NC(=O)[C@H](CO)NC(C)=O)C(C)C)C(=O)N[C@@H](CCC(N)=O)C(=O)N[C@@H](CC(C)C)C(=O)N[C@@H](CCSC)C(=O)N[C@@H](Cc1cnc[nH]1)C(=O)N[C@@H](CC(N)=O)C(=O)N[C@@H](CC(C)C)C(=O)NCC(=O)N[C@@H](CCCCN)C(=O)N[C@@H](Cc1cnc[nH]1)C(=O)N[C@@H](CC(C)C)C(=O)N[C@@H](CC(N)=O)C(=O)N[C@@H](CO)C(=O)N[C@@H](CCSC)C(=O)N[C@@H](CCC(=O)O)C(=O)N[C@@H](CCCNC(=N)N)C(=O)N[C@H](C(=O)N[C@@H](CCC(=O)O)C(=O)N[C@@H](Cc1c[nH]c2ccccc12)C(=O)N[C@@H](CC(C)C)C(=O)N[C@@H](CCCNC(=N)N)C(=O)N[C@@H](CCCCN)C(=O)N[C@@H](CCCCN)C(=O)N[C@@H](CC(C)C)C(=O)N[C@@H](C)C(=O)N[C@@H](CC(=O)O)C(=O)N[C@H](C(=O)N[C@@H](Cc1cnc[nH]1)C(=O)N[C@@H](CC(N)=O)C(=O)N[C@@H](Cc1ccccc1)C(N)=O)C(C)C)C(C)C`: the Activity result in series [1] is “Non-Toxic”.
